In patent publication US20240174618A1, “SUBSTITUTED (2-HETEROARYLOXYPHENYL)SULFONATES, SALTS THEREOF AND THEIR USE AS HERBICIDAL AGENTS” (Bayer Aktiengesellschaft, priority 2021, published 2024):

How the values were obtained:
Assay type in all cases: in vivo
[1] = test system: Amaranthus retroflexus (AMARE); test: A. Herbicidal pre-emergence efficacy, AMARE
How it was run: (§1)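 Applied before emergence onto covering soil at rates of 1280 g/ha or less, using 600 L/ha spray water with 0.5% additive. Scoring: visual % efficacy after ~3 weeks, greenhouse.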

[2] = test system: Veronica persica (VERPE); test: C. Herbicidal pre-emergence efficacy, VERPE; settings: scored after about 3 weeks
How it was run: (§2)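 Pre-emergence test: formulated compounds sprayed as aqueous suspension or emulsion with 0.5% additive at 600 l/ha onto soil covering sown seeds, at rates corresponding to 320 g/ha or less. After about 3 weeks in greenhouse, efficacy scored visually as percent versus untreated controls (100% = plants dead).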

[3] = test system: Digitaria sanguinalis (DIGSA); test: C. Herbicidal pre-emergence efficacy, DIGSA; settings: scored after about 3 weeks
How it was run: as §2

[4] = test system: Digitaria sanguinalis (DIGSA); test: B. Herbicidal post-emergence efficacy, DIGSA; settings: rated visually after about 3 weeks
How it was run: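 Visual percent efficacy relative to untreated controls (0% unaffected, 100% dead), scored roughly 3 weeks after foliar spraying of one-leaf-stage pot-grown plants with WP or EC preparations at application rates up to 1280 g/ha in 600 L/ha water containing 0.5% additive.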

[5] = test system: Echinochloa crus-galli (ECHCG); test: A. Herbicidal pre-emergence efficacy, ECHCG; settings: scored visually after about 3 weeks vs untreated controls
How it was run: as §1

[6] = test system: Abutilon theophrasti (ABUTH); test: C. Herbicidal pre-emergence efficacy, ABUTH; settings: scored after about 3 weeks
Excerpt: Seeds of monocotyledonous and dicotyledonous weed plants and crop plants were placed in plastic or organic planting pots and covered with soil. The compounds of the invention, formulated in the form of wettable powders (WP) or as emulsion concentrates (EC), were then applied to the surface of the covering soil as aqueous suspension or emulsion with addition of 0.5% additive at a water application rate equivalent to 600 l/ha (converted). After the treatment, the pots were placed in a greenhouse and kept under good growth conditions for the test plants. After about 3 weeks, the efficacy of the preparations was scored visually in comparison with untreated controls as percentages. For example, • 100% efficacy=plants have died, • 0% efficacy=like untreated control plants.
Tables C1a to C14b below show the effects of selected compounds of the general formula (I) according to table 1 on various harmful plants at an application rate corresponding to 320 g/ha or less, which were obtained by the experimental procedure mentioned above.

[7] = test system: Echinochloa crus-galli (ECHCG); test: C. Herbicidal pre-emergence efficacy, ECHCG; settings: scored after about 3 weeks
How it was run: as §2

[8] = test system: Abutilon theophrasti (ABUTH); test: E. Herbicidal post-emergence efficacy, ABUTH
How it was run: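 Compounds applied at 320 g/ha or less as a foliar spray (600 l/ha, 0.5% additive) to one-leaf-stage greenhouse plants grown in sandy loam. Damage is visually scored in percent relative to untreated plants after about 3 weeks.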

[9] = test system: Triticum aestivum (TRZAS); test: D. Pre-emergence effect on useful plants, TRZAS; settings: useful plant
How it was run: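 Seeds sown in pots and covered with soil; WP or EC formulations sprayed on the soil surface as aqueous suspension/emulsion with 0.5% additive at 600 l/ha water. Plants grown in greenhouse; crop damage scored visually after about 3 weeks as % versus untreated controls (100% = dead, 0% = like control).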

Structure (SMILES)	Pre-emergence efficacy against AMARE in % ([1]; 80 g/ha)	Pre-emergence efficacy against AMARE in % ([1]; 320 g/ha)	Pre-emergence efficacy against AMARE in % ([1]; 1280 g/ha)	Pre-emergence efficacy against VERPE ([2]; 80 g/ha)	Pre-emergence efficacy against VERPE ([2]; 320 g/ha)	Pre-emergence efficacy against DIGSA ([3]; 80 g/ha)	Pre-emergence efficacy against DIGSA ([3]; 320 g/ha)	Post-emergence efficacy against DIGSA in % ([4]; 320 g/ha)	Post-emergence efficacy against DIGSA in % ([4]; 1280 g/ha)	Pre-emergence efficacy against ECHCG ([5]; 80 g/ha)	Pre-emergence efficacy against ECHCG ([5]; 320 g/ha)	Pre-emergence efficacy against ECHCG ([5]; 1280 g/ha)	Pre-emergence efficacy against ABUTH ([6]; 80 g/ha)	Pre-emergence efficacy against ABUTH ([6]; 320 g/ha)	Pre-emergence efficacy against ECHCG ([7]; 80 g/ha)	Pre-emergence efficacy against ECHCG ([7]; 320 g/ha)	Post-emergence efficacy against ABUTH in % ([8]; application rate 80 g/ha)	Post-emergence efficacy against ABUTH in % ([8]; application rate 320 g/ha)	Pre-emergence efficacy against TRZAS in % ([9]; application rate 80 g/ha)	Pre-emergence efficacy against TRZAS in % ([9]; application rate 320 g/ha)
O=S(=O)(CCC(F)(F)F)Oc1c(F)cccc1Oc1ncc(Br)cn1 [Example I-40]	100%	100%	100%	100%	100%	100%	100%	90%	90%	100%	100%	100%	100%	100%	100%	100%	90%	100%		
O=S(=O)(CCCCl)Oc1c(F)cccc1Oc1ncc(Cl)cn1 [Example I-14]	100%	100%	100%	100%	100%			100%	100%	100%	100%	100%	90%	100%	100%	100%		90%		
C=CCCS(=O)(=O)Oc1c(F)cccc1Oc1ncc(Cl)cn1 [Example I-50]	90%	90%	100%			100%	100%		90%		90%	100%		100%	80%	100%			0%	
Cc1cccc(Oc2ncc(F)cn2)c1OS(=O)(=O)CCC(F)(F)F [Example I-45]	90%	100%	100%			100%	100%			90%	100%	100%	100%	100%	100%	100%			0%	
O=S(=O)(CC1CC(F)(F)C1)Oc1c(F)cccc1Oc1ncc(Cl)cn1 [Example I-53]	100%	100%	100%	100%	100%	100%	100%	90%	90%	100%	100%	100%	100%	100%	100%	100%	100%	100%		
C=CCS(=O)(=O)Oc1ccccc1Oc1ncc(Cl)cn1 [Example I-36]		100%	100%				100%					100%		90%		80%			0%	0%
O=S(=O)(CCC(F)=C(F)F)Oc1c(F)cccc1Oc1ncc(Cl)cn1 [Example I-70]				80%	100%	100%	100%						80%	100%	90%	100%	80%	90%	0%	
CCCS(=O)(=O)Oc1ccccc1Oc1ncc(Cl)cn1 [Example I-3]	100%	100%	100%		100%						100%	100%	100%	100%	90%	100%			10%	
O=S(=O)(CCl)Oc1ccccc1Oc1ncc(Cl)cn1 [Example I-9]	100%	100%	100%		100%		100%					100%				90%	80%	80%	20%	
COCCS(=O)(=O)Oc1c(F)cccc1Oc1ncc(Cl)cn1 [Example I-52]	90%	100%	100%			80%	100%		90%		90%	90%	80%	100%	100%	100%			0%	
O=S(=O)(CCCC(F)(F)F)Oc1c(Cl)cccc1Oc1ncc(Cl)cn1 [Example I-39]	100%	100%	100%	100%	100%	100%	100%		90%		90%	100%	100%	100%	90%	100%	80%	100%		
O=S(=O)(CCCCl)Oc1cccc(F)c1Oc1ncc(Cl)cn1 [Example I-13]			100%		90%				90%			100%		90%		80%			10%	10%
O=S(=O)(CCCCl)Oc1ccccc1Oc1ncc(Cl)cn1 [Example I-2]	100%	100%	100%	90%	100%					90%	100%	100%	100%	100%	90%	100%		100%	0%	
N#Cc1cccc(Oc2ncc(Cl)cn2)c1OS(=O)(=O)CCCC(F)(F)F [Example I-81]				100%	100%	100%	100%							100%		100%	80%	90%	0%	
O=S(=O)(CCC(F)(F)F)Oc1c(Br)cccc1Oc1ncc(F)cn1 [Example I-43]	100%	100%	100%				100%				100%	100%	80%	100%		90%			0%	
